The results in this text go back to patent US8742106B2 (Novartis AG, priority 2009, dated 2014).

Usually Ki stands for a measure of affinity in units of concentration, obtained from inhibition or displacement. The inhibition is the relative decrease from the control value, in per cent.

For one assay, the target named is human orexin 1 receptors (Homo sapiens (Human), UniProt O43613). As to the kind of experiment: Calcium Accumulation in Cells (FLIPR), antagonism of orexin A. The format is cell-based. The note with it: for Ki: antagonism of orexin A, Cheng-Prusoff corrected, read-out: FLIPR hOx1R Ki; for inhibition at 10 µM: measured at a concentration of 10 μM of compound, read-out: FLIPR hOx1R % inhibition value. How it is done:
(§1) Calcium Accumulation in Cells (FLIPR):
Cells expressing human orexin 1 or human orexin 2 receptors, were seeded at 8,000 cells/well in 384 well black-walled clear bottom, poly-D-lysine coated plates. After 24 h, the medium was removed and cells were washed once with phosphate buffered saline and serum-deprived overnight in assay buffer (130 mM NaCl, 5.4 mM KCl, 1.8 mM CaCl2, 0.8 mM MgSO4, 0.9 mM NaH2PO4, 25 mM glucose, 20 mM HEPES, pH 7.4) containing bovine serum albumin (1% w/v).
On the day of the experiment, the cells seeded in black plates were treated with assay buffer containing the Ca^2+ sensitive fluorescent dye Fluo4-AM (2 μM), and probenecid (0.1 mM). After 1 h plates were washed twice with, and resuspended in, assay buffer containing probenecid (0.1 mM) using a multi plate washer. The plates were placed into a FLIPR II (Fluorometric Imaging Plate Reader, Molecular Devices, Sunnyvale, Calif., USA) and baseline fluorescence (fluorescence light units, FLU) was measured (5 measurements, 2 S each; laser excitation 488 nm at 0.6-1 W, CCD camera exposure 0.4 s) before addition of buffer alone (basal) or containing test compounds (either compound of formula (I) or (I′) alone, agonist alone or agonist in the presence of various concentrations of compounds of formula (I) or (I′)). Fluorescence measurements were then continued every 1 S for 120 S followed by every 4 S for 240 S.
(§2) The measurements were typically made in two sequences:
(§3) In the first round, compounds of formula (I) or (I′) were tested alone, to detect possible agonist activity. Compounds of formula I or I′ were tested usually in a concentration range from 10^−9 M to 10^−5 M.
(§4) In the second round, performed one hour later (to allow for equilibration), Orexin A was tested either in the absence (calibration curves, Orexin A agonist controls) or in the presence of compounds of formula (I) or (I′) to determine antagonism.

For the next assay, the target named is human orexin 2 receptors (Homo sapiens (Human), UniProt O43614). Described as above. The class given is cell-based. The following applies: for Ki: antagonism of orexin A, Cheng-Prusoff corrected, read-out: FLIPR hOx2R Ki; for inhibition at 10 µM: measured at a concentration of 10 μM of compound, read-out: FLIPR hOx2R % inhibition value. How it is done: as §1
Cells expressing human orexin 1 or human orexin 2 receptors, were seeded at 8,000 cells/well in 384 well black-walled clear bottom, poly-D-lysine coated plates.
On the day of the experiment, the cells seeded in black plates were treated with assay buffer containing the Ca^2+ sensitive fluorescent dye Fluo4-AM (2 μM), and probenecid (0.1 mM). After 1 h plates were washed twice with, and resuspended in, assay buffer containing probenecid (0.1 mM) using a multi plate washer. […] Fluorescence measurements were then continued every 1 S for 120 S followed by every 4 S for 240 S.
as §2, §3, §4

Chain of human orexin 1 receptors (O43613 whole entry): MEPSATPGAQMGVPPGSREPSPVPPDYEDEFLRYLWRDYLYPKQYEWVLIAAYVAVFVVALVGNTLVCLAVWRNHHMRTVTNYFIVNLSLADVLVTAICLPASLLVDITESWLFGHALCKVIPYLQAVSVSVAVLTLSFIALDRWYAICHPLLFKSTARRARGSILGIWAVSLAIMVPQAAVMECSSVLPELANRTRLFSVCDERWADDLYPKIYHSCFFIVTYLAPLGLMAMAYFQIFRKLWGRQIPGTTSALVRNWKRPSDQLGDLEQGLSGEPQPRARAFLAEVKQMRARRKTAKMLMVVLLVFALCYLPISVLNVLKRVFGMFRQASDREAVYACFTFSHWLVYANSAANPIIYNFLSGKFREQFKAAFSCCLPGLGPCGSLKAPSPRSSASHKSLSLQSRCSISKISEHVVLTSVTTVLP
Chain of human orexin 2 receptors (O43614 whole entry): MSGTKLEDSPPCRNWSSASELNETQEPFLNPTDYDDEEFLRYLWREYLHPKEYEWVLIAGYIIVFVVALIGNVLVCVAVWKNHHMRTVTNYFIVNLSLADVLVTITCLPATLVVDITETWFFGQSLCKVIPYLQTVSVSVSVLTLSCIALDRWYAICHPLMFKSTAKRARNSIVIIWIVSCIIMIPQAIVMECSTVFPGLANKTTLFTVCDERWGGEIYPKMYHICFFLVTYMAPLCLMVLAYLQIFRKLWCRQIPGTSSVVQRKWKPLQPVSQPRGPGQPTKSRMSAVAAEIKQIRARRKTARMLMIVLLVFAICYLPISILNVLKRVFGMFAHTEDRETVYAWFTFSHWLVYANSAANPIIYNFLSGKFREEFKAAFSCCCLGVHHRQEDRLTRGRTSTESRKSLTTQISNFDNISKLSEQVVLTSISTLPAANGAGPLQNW

Regarding `Cc1n[nH]c(C)c1C(C)NC(=O)COc1cc(C)c2c(C3CC3)nn(C)c2n1` (centres unmarked) [Example 1.76, 2-(3-cyclopropyl-1,4-dimethyl-1H-pyrazolo[3,4-b]pyridin-6-yloxy)-N-(1-(3,5-dimethyl-1H-pyrazol-4-yl)ethyl)acetamide], the figures for the Ki on human orexin 1 receptors and at human orexin 2 receptors were 395 nM and 606 nM, respectively.

For the molecule `COc1ccc(CNC(=O)COc2cc(C)c3c(C4CC4)nn(C)c3n2)cc1` [Example 6.67, 2-(3-cyclopropyl-1,4-dimethyl-1H-pyrazolo[3,4-b]pyridin-6-yloxy)-N-(4-methoxybenzyl)acetamide], the inhibition at 10 µM at human orexin 1 receptors was determined as 29%; at human orexin 2 receptors, 40%.

`Cc1cc(OCC(=O)NC(C)c2cnc3c(ccn3C)c2)nc2c1c(C1CC1)nn2C` (centres unmarked) [Example 8.1, 2-(3-cyclopropyl-1,4-dimethyl-1H-pyrazolo[3,4-b]pyridin-6-yloxy)-N-(1-(1-methyl-1H-pyrrolo[2,3-b]pyridin-5-yl)ethyl)acetamide]: the Ki at human orexin 1 receptors came to 92 nM; at human orexin 2 receptors, 165 nM.

On to `CCOc1ccc(CNC(=O)COc2cc(C)c3c(C4CC4)nn(C)c3n2)cc1` [Example 7.33, 2-(3-cyclopropyl-1,4-dimethyl-1H-pyrazolo[3,4-b]pyridin-6-yloxy)-N-(4-ethoxybenzyl)acetamide], for which the Ki on human orexin 1 receptors turned out to be 3170 nM. Moreover, the inhibition at 10 µM at human orexin 2 receptors was 24%.

Regarding `CCCNC(=O)COc1cc(C(F)(F)F)c2c(-c3ccccc3)nn(C)c2n1` [Example 1.55, 2-(1-methyl-3-phenyl-4-(trifluoromethyl)-1H-pyrazolo[3,4-b]pyridin-6-yloxy)-N-propylacetamide], the inhibition at 10 µM on human orexin 1 receptors worked out at 23%. On human orexin 2 receptors, the Ki was found to be 767 nM.

`CCOc1ccccc1CNC(=O)COc1cc(C(F)(F)F)c2c(-c3ccccc3)nn(C)c2n1` [Example 1.7, N-(2-ethoxybenzyl)-2-(1-methyl-3-phenyl-4-(trifluoromethyl)-1H-pyrazolo[3,4-b]pyridin-6-yloxy)acetamide]: the figures for the Ki at human orexin 1 receptors and at human orexin 2 receptors were 1020 nM and 337 nM, respectively.

For the molecule `Cn1nc(-c2ccccc2)c2c(C(F)(F)F)cc(OCC(=O)NCc3ccccc3)nc21` [Example 1.12, N-benzyl-2-(1-methyl-3-phenyl-4-(trifluoromethyl)-1H-pyrazolo[3,4-b]pyridin-6-yloxy)acetamide], the Ki on human orexin 1 receptors came to 2500 nM; on human orexin 2 receptors, 1380 nM.

As for `COc1ccc(C(C)NC(=O)COc2cc(C)c3c(C4CC4)nn(C)c3n2)cn1` (centres unmarked) [Example 6.47, 2-(3-cyclopropyl-1,4-dimethyl-1H-pyrazolo[3,4-b]pyridin-6-yloxy)-N-(1-(6-methoxypyridin-3-yl)ethyl)acetamide], the Ki came out at 1490 nM on human orexin 1 receptors and 747 nM at human orexin 2 receptors.

In the case of `Cc1ccc(C(C)NC(=O)COc2cc(C(F)(F)F)c3c(-c4ccccc4)nn(C)c3n2)o1` (centres unmarked) [Example 1.28, 2-(1-methyl-3-phenyl-4-(trifluoromethyl)-1H-pyrazolo[3,4-b]pyridin-6-yloxy)-N-(1-(5-methylfuran-2-yl)ethyl)acetamide], the Ki at human orexin 1 receptors turned out to be 941 nM; on human orexin 2 receptors, 411 nM.

Turning to `C[C@H](NC(=O)COc1cc(C(F)(F)F)c2c(C3CC3)nn(C)c2n1)c1ccccc1` [Example 1.50, (S)-2-(3-cyclopropyl-1-methyl-4-(trifluoromethyl)-1H-pyrazolo[3,4-b]pyridin-6-yloxy)-N-(1-phenylethyl)acetamide], the Ki came out at 730 nM on human orexin 1 receptors and 168 nM on human orexin 2 receptors.

As to `Cc1cc(OCC(=O)NC2CCCc3c2cnn3C)nc2c1c(C1CC1)nn2C` (centres unmarked) [Example 7.24, 2-(3-cyclopropyl-1,4-dimethyl-1H-pyrazolo[3,4-b]pyridin-6-yloxy)-N-(1-methyl-4,5,6,7-tetrahydro-1H-indazol-4-yl)acetamide], the inhibition at 10 µM at human orexin 1 receptors amounted to 28%; at human orexin 2 receptors it was 25%.

Take `Cn1nc(-c2ccccc2)c2c(C(F)(F)F)cc(OCC(=O)NC3CC3)nc21` [Example 1.53, N-cyclopropyl-2-(1-methyl-3-phenyl-4-(trifluoromethyl)-1H-pyrazolo[3,4-b]pyridin-6-yloxy)acetamide]: the inhibition at 10 µM at human orexin 1 receptors was 14%; on human orexin 2 receptors it was 36%.

In the case of `CNC(=O)COc1cc(C)c2c(C3CC3)nn(C)c2n1` [Example 6.52], the inhibition at 10 µM at human orexin 1 receptors and on human orexin 2 receptors was under 10% in each case.

For the molecule `Cc1ccc(C(C)NC(=O)COc2cc(C(F)(F)F)c3c(C4CC4)nn(C)c3n2)cn1` (centres unmarked) [Example 6.16, 2-(3-cyclopropyl-1-methyl-4-(trifluoromethyl)-1H-pyrazolo[3,4-b]pyridin-6-yloxy)-N-(1-(6-methylpyridin-3-yl)ethyl)acetamide], the Ki was 1590 nM on human orexin 1 receptors and 188 nM at human orexin 2 receptors.

For the molecule `Cc1cc(OCC(=O)NC(C)C2CC2)nc2c1c(C1CC1)nn2C` (centres unmarked) [Example 6.53], the inhibition at 10 µM on human orexin 1 receptors worked out at 17%; on human orexin 2 receptors, 38%.

As to `Cc1cc(OCC(=O)NC(C)c2cc(CC(C)(C)C)on2)nc2c1c(C1CC1)nn2C` (centres unmarked) [Example 6.48, 2-(3-cyclopropyl-1,4-dimethyl-1H-pyrazolo[3,4-b]pyridin-6-yloxy)-N-(1-(5-neopentylisoxazol-3-yl)ethyl)acetamide], the inhibition at 10 µM on human orexin 1 receptors and on human orexin 2 receptors was under 10% each time.

For `C[C@H](NC(=O)COc1cc(C(F)(F)F)c2c(C3CCCC3)nn(C)c2n1)c1ccccc1` [Example 1.52, (S)-2-(3-cyclopentyl-1-methyl-4-(trifluoromethyl)-1H-pyrazolo[3,4-b]pyridin-6-yloxy)-N-(1-phenylethyl)acetamide], the Ki came out at 1170 nM at human orexin 1 receptors and 868 nM on human orexin 2 receptors.

As to `Cc1cc(OCC(=O)NC2CCc3cc(F)ccc32)nc2c1c(C1CC1)nn2C` (centres unmarked) [Example 6.40, 2-(3-cyclopropyl-1,4-dimethyl-1H-pyrazolo[3,4-b]pyridin-6-yloxy)-N-(5-fluoro-2,3-dihydro-1H-inden-1-yl)acetamide], the inhibition at 10 µM on human orexin 1 receptors came to 21%. At human orexin 2 receptors, the Ki came to 589 nM.

On to `COc1cncc(-c2nn(C)c3nc(OCC(=O)N[C@@H](C)c4ccc(C)cc4)cc(C)c23)n1` [Example 4.12, (S)-2-(3-(6-methoxypyrazin-2-yl)-1,4-dimethyl-1H-pyrazolo[3,4-b]pyridin-6-yloxy)-N-(1-p-tolylethyl)acetamide], for which the Ki at human orexin 1 receptors was determined as 240 nM; at human orexin 2 receptors, 202 nM.

For the molecule `Cc1nn(C)c(C)c1C(C)NC(=O)COc1cc(C)c2c(C3CC3)nn(C)c2n1` (centres unmarked) [Example 1.72, 2-(3-cyclopropyl-1,4-dimethyl-1H-pyrazolo[3,4-b]pyridin-6-yloxy)-N-(1-(1,3,5-trimethyl-1H-pyrazol-4-yl)ethyl)acetamide], the results for the Ki on human orexin 1 receptors and at human orexin 2 receptors were 2120 nM and 1230 nM, respectively.

For the molecule `Cc1cc(OCC(=O)NC(C)c2ccncc2)nc2c1c(-c1ccccc1)nn2C` (centres unmarked) [Example 1.63, 2-(1,4-dimethyl-3-phenyl-1H-pyrazolo[3,4-b]pyridin-6-yloxy)-N-(1-(pyridin-4-yl)ethyl)acetamide], the inhibition at 10 µM on human orexin 1 receptors turned out to be 27%; at human orexin 2 receptors, 34%.

For the molecule `COc1ccc([C@H](C)N(C)C(=O)COc2cc(C)c3c(C4CC4)nn(C)c3n2)cc1` [Example 6.51], on human orexin 1 receptors, the inhibition at 10 µM is 26%. At human orexin 2 receptors, the Ki was determined as 575 nM.

Consider `Cc1ccccc1-c1nn(C)c2nc(OCC(=O)N[C@@H](C)c3ccccc3)cc(C(F)(F)F)c12` [Example 1.26, (S)-2-(1-methyl-3-o-tolyl-4-(trifluoromethyl)-1H-pyrazolo[3,4-b]pyridin-6-yloxy)-N-(1-phenylethyl)acetamide], for which the results for the Ki at human orexin 1 receptors and on human orexin 2 receptors were 218 nM and 183 nM, respectively.

For `Cc1cc2c(cn1)[C@@H](NC(=O)COc1cc(C)c3c(C4CC4)nn(C)c3n1)CC2` [Example 6.64, (S)-2-(3-cyclopropyl-1,4-dimethyl-1H-pyrazolo[3,4-b]pyridin-6-yloxy)-N-(3-methyl-6,7-dihydro-5H-cyclopenta[c]pyridin-7-yl)acetamide], the values for the Ki at human orexin 1 receptors and on human orexin 2 receptors were 783 nM and 93 nM, respectively.

On to `Cc1ccc(C(C)NC(=O)COc2cc(C)c3c(C4CC4)nn(C)c3n2)cn1` (centres unmarked) [Example 6.55], for which the inhibition at 10 µM on human orexin 1 receptors was 53%. In addition, the Ki on human orexin 2 receptors came out at 525 nM.
